PubChem BioAssay AID248 (DTP/NCI, 2004)
Values joined by “and” are separate entries in the source; they are usually repeats but may differ in a detail not shown here. Identical values can stand only once. Toxic doses and inconclusive results are not listed.

Test system: L1210 leukemia ip in BDF1 mice, survival T/C
Experiment: NCI In Vivo Anticancer Drug Screen. Data for tumor model L1210 Leukemia (intraperitoneal) in B6D2F1 (BDF1) mice
Settings: endpoint: mean survival time, higher = longer survival
Summary of the method: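 Tumor was transplanted into mice, which were then dosed with test compound or vehicle alone. Survival was recorded for each group, and the treated figure was expressed relative to the control figure.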

[1] = dose: 100.0 mg/kg/injection, schedule: Q01DX001 (ip), vehicle: saline
[2] = dose: 200.0 mg/kg/injection, schedule: Q01DX001 (ip), vehicle: saline
[3] = dose: 100.0 mg/kg/injection, schedule: Q04DX002 (ip), vehicle: Klucel (hydroxypropylcellulose) (HPC)
[4] = dose: 200.0 mg/kg/injection, schedule: Q04DX002 (ip), vehicle: Klucel (hydroxypropylcellulose) (HPC)
[5] = dose: 400.0 mg/kg/injection, schedule: Q04DX002 (ip), vehicle: Klucel (hydroxypropylcellulose) (HPC)
[6] = dose: 100.0 mg/kg/injection, schedule: Q04DX003 (ip), vehicle: Klucel (hydroxypropylcellulose) (HPC)
[7] = dose: 200.0 mg/kg/injection, schedule: Q04DX003 (ip), vehicle: Klucel (hydroxypropylcellulose) (HPC)
[8] = dose: 400.0 mg/kg/injection, schedule: Q04DX003 (ip), vehicle: Klucel (hydroxypropylcellulose) (HPC)
[9] = dose: 100.0 mg/kg/injection, schedule: Q01DX009 (ip), vehicle: Klucel (hydroxypropylcellulose) (HPC)
[10] = dose: 200.0 mg/kg/injection, schedule: Q01DX009 (ip), vehicle: Klucel (hydroxypropylcellulose) (HPC)
[11] = dose: 100.0 mg/kg/injection, schedule: Q01DX001 (ip), vehicle: Klucel (hydroxypropylcellulose) (HPC)
[12] = dose: 200.0 mg/kg/injection, schedule: Q01DX001 (ip), vehicle: Klucel (hydroxypropylcellulose) (HPC)

## COc1cc2c(c(OC)c1OC)-c1ccc(OC)c(=O)cc1[C@@H](NC(=O)CF)CC2
dose: 0.04 mg/kg/injection, schedule: Q01DX009 (ip), vehicle: saline
  T/C: 113 % of control
dose: 0.06 mg/kg/injection, schedule: Q04DX002 (ip), vehicle: saline with Tween-80
  T/C: 101 % of control
dose: 0.09 mg/kg/injection, schedule: Q01DX001 (ip), vehicle: saline with Tween-80
  T/C: 116 % of control
dose: 0.09 mg/kg/injection, schedule: Q01DX009 (ip), vehicle: saline with Tween-80
  T/C: 122 % of control
dose: 0.09 mg/kg/injection, schedule: Q01DX009 (ip), vehicle: saline
  T/C: 118 % of control
dose: 0.09 mg/kg/injection, schedule: Q04DX003 (ip), vehicle: saline with Tween-80
  T/C: 108 % of control
dose: 0.12 mg/kg/injection, schedule: Q04DX002 (ip), vehicle: saline with Tween-80
  T/C: 104 % of control
dose: 0.18 mg/kg/injection, schedule: Q01DX001 (ip), vehicle: saline with Tween-80
  T/C: 119 % of control
dose: 0.18 mg/kg/injection, schedule: Q04DX003 (ip), vehicle: saline with Tween-80
  T/C: 113 % of control
dose: 0.25 mg/kg/injection, schedule: Q04DX002 (ip), vehicle: saline with Tween-80
  T/C: 117 % of control
dose: 0.37 mg/kg/injection, schedule: Q01DX001 (ip), vehicle: saline with Tween-80
  T/C: 114 % of control
dose: 0.37 mg/kg/injection, schedule: Q01DX009 (ip), vehicle: saline with Tween-80
  T/C: 100 % of control
dose: 0.37 mg/kg/injection, schedule: Q04DX003 (ip), vehicle: saline with Tween-80
  T/C: 118 % of control
dose: 0.5 mg/kg/injection, schedule: Q04DX002 (ip), vehicle: saline with Tween-80
  T/C: 121 % of control
dose: 0.75 mg/kg/injection, schedule: Q01DX001 (ip), vehicle: saline with Tween-80
  T/C: 121 % of control
dose: 0.75 mg/kg/injection, schedule: Q04DX003 (ip), vehicle: saline with Tween-80
  T/C: 116 % of control
dose: 1.5 mg/kg/injection, schedule: Q04DX002 (ip), vehicle: saline with Tween-80
  T/C: 113 % of control
dose: 2.0 micrograms/kg/injection, schedule: Q01DX009 (ip), vehicle: saline with Tween-80
  T/C: 97 % of control
dose: 5.0 micrograms/kg/injection, schedule: Q01DX009 (ip), vehicle: saline with Tween-80
  T/C: 105 % of control
dose: 10.0 micrograms/kg/injection, schedule: Q01DX009 (ip), vehicle: saline with Tween-80
  T/C: 89 % of control

## CN(C)P1N(C)CCN1C
[1]
  T/C: 95 % of control
[2]
  T/C: 106 % of control
dose: 400.0 mg/kg/injection, schedule: Q01DX001 (ip), vehicle: saline
  T/C: 87 % of control

## CCc1[nH]c(=O)nc2[nH]c3ccccc3c12
[3]
  T/C: 90 % of control
[4]
  T/C: 93 % of control
[5]
  T/C: 97 % of control

## O=c1[nH]c(SCc2ccc([N+](=O)[O-])cc2)nc2ccccc12
[6]
  T/C: 111 % of control
[7]
  T/C: 102 % of control
[8]
  T/C: 94 % of control

## O=C(O)c1cccc(Br)c1[N+](=O)[O-]
[1]
  T/C: 97 % of control
[2]
  T/C: 101 % of control

## COc1cc(NS(C)(=O)=O)ccc1Nc1c2ccccc2nc2c(C)cccc12
dose: 0.62 mg/kg/injection, schedule: Q01DX009 (ip), vehicle: saline
  T/C: 100 % of control
dose: 1.25 mg/kg/injection, schedule: Q01DX009 (ip), vehicle: Klucel (hydroxypropylcellulose) (HPC)
  T/C: 124 % of control
dose: 1.25 mg/kg/injection, schedule: Q01DX009 (ip), vehicle: saline
  T/C: 111 % of control
dose: 2.5 mg/kg/injection, schedule: Q01DX009 (ip), vehicle: saline
  T/C: 160 % of control
dose: 2.5 mg/kg/injection, schedule: Q01DX009 (sc), vehicle: saline
  T/C: 116 % of control
dose: 2.5 mg/kg/injection, schedule: Q04DX003 (ip), vehicle: saline
  T/C: 121 % of control
dose: 5.0 mg/kg/injection, schedule: Q01DX009 (ip), vehicle: Klucel (hydroxypropylcellulose) (HPC)
  T/C: 118 % of control
dose: 5.0 mg/kg/injection, schedule: Q01DX009 (ip), vehicle: saline
  T/C: 163 % of control
dose: 10.0 mg/kg/injection, schedule: Q01DX009 (ip), vehicle: Klucel (hydroxypropylcellulose) (HPC)
  T/C: 103 % of control
dose: 10.0 mg/kg/injection, schedule: Q01DX009 (sc), vehicle: saline
  T/C: 112 % of control
dose: 10.0 mg/kg/injection, schedule: Q04DX003 (ip), vehicle: saline
  T/C: 159 % of control and 164 % of control
dose: 20.0 mg/kg/injection, schedule: Q04DX003 (ip), vehicle: saline
  T/C: 213 % of control and 234 % of control

## CCC(=O)Nc1cc(C(C)C)ccc1C
[9]
  T/C: 107 % of control
[6]
  T/C: 97 % of control
[10]
  T/C: 110 % of control
[7]
  T/C: 97 % of control
dose: 400.0 mg/kg/injection, schedule: Q01DX009 (ip), vehicle: Klucel (hydroxypropylcellulose) (HPC)
  T/C: 103 % of control
[8]
  T/C: 104 % of control

## CCCCCCC(CCCCCC)CCCCCC
dose: 100.0 mg/kg/injection, schedule: Q01DX001 (ip), vehicle: saline with Tween-80
  T/C: 99 % of control
dose: 200.0 mg/kg/injection, schedule: Q01DX001 (ip), vehicle: saline with Tween-80
  T/C: 100 % of control
dose: 400.0 mg/kg/injection, schedule: Q01DX001 (ip), vehicle: saline with Tween-80
  T/C: 99 % of control

## Cc1no[n+]([O-])c1C(=O)O
[3]
  T/C: 95 % of control
[4]
  T/C: 93 % of control

## Cc1cc(C(C)(C)CC(C)(C)C)cc(O)c1O
dose: 100.0 mg/kg/injection, schedule: Q01DX009 (ip), vehicle: other
  T/C: 94 % of control
dose: 100.0 mg/kg/injection, schedule: Q04DX003 (ip), vehicle: other
  T/C: 96 % of control
dose: 200.0 mg/kg/injection, schedule: Q01DX009 (ip), vehicle: other
  T/C: 94 % of control
dose: 200.0 mg/kg/injection, schedule: Q04DX003 (ip), vehicle: other
  T/C: 93 % of control
dose: 400.0 mg/kg/injection, schedule: Q01DX009 (ip), vehicle: other
  T/C: 94 % of control
dose: 400.0 mg/kg/injection, schedule: Q04DX003 (ip), vehicle: other
  T/C: 91 % of control

## Cc1ccc(NC(=O)CCc2ccc(N3C(N)=NC(N)=NC3(C)C)cc2)cc1S(=O)(=O)F
[11]
  T/C: 90 % of control
[12]
  T/C: 108 % of control

## CC1(C(Cl)Cl)C(=O)C=Cc2ccccc21 (stereo not given)
dose: 100.0 mg/kg/injection, schedule: Q04DX002 (ip), vehicle: saline with Tween-80
  T/C: 95 % of control
dose: 200.0 mg/kg/injection, schedule: Q04DX002 (ip), vehicle: saline with Tween-80
  T/C: 98 % of control
dose: 400.0 mg/kg/injection, schedule: Q04DX002 (ip), vehicle: saline with Tween-80
  T/C: 95 % of control

## CSc1cc(C)n2nnnc2n1
dose: 12.5 mg/kg/injection, schedule: Q01DX001 (ip), vehicle: saline
  T/C: 100 % of control
dose: 25.0 mg/kg/injection, schedule: Q01DX001 (ip), vehicle: saline
  T/C: 96 % of control
dose: 50.0 mg/kg/injection, schedule: Q01DX001 (ip), vehicle: saline
  T/C: 100 % of control

## Cc1ccc(C(=O)/C=C(\C(=O)c2ccccc2)c2ccccc2)cc1C
[3]
  T/C: 97 % of control
[4]
  T/C: 93 % of control
[5]
  T/C: 97 % of control

## C/C(=N\NC(=S)Nc1cc(Cl)ccc1Cl)c1cc([N+](=O)[O-])c(O)cc1O
[11]
  T/C: 104 % of control
[12]
  T/C: 101 % of control
dose: 400.0 mg/kg/injection, schedule: Q01DX001 (ip), vehicle: Klucel (hydroxypropylcellulose) (HPC)
  T/C: 93 % of control

## CC(=O)OC1CC(n2cc(C)c(=O)[nH]c2=O)OC1COP(=O)(N1CC1)N1CC1 (stereo not given)
dose: 50.0 mg/kg/injection, schedule: Q04DX002 (ip), vehicle: saline
  T/C: 107 % of control
dose: 200.0 mg/kg/injection, schedule: Q04DX002 (ip), vehicle: saline
  T/C: 112 % of control

## CC(C)=CCN(CC=C(C)C)CCC(C#N)c1cccc2ccccc12 (stereo not given)
dose: 50.0 mg/kg/injection, schedule: Q01DX009 (ip), vehicle: Klucel (hydroxypropylcellulose) (HPC)
  T/C: 100 % of control
[9]
  T/C: 88 % of control
[6]
  T/C: 109 % of control
[10]
  T/C: 88 % of control
[7]
  T/C: 90 % of control
[8]
  T/C: 93 % of control

## O=C(OCCBr)c1ccccc1[N+](=O)[O-]
dose: 100.0 mg/kg/injection, schedule: Q04DX003 (ip), vehicle: saline
  T/C: 105 % of control
dose: 200.0 mg/kg/injection, schedule: Q04DX003 (ip), vehicle: saline
  T/C: 97 % of control
dose: 400.0 mg/kg/injection, schedule: Q04DX003 (ip), vehicle: saline
  T/C: 100 % of control
